According to patent publication US10533015B1, “Opioid receptor antagonist prodrugs” (Nirsum Laboratories, Inc., priority 2019, dated 2020):
Where two headings read alike, the source gives them in different places.

Key:
[1] = cited from earlier work
[2] = Plasma stability assay, rat plasma; type: in vitro ADME; conditions: 10 μM, 37° C.
Method in brief: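 Rat, dog, cynomolgus monkey and human plasma incubated in duplicate; rat sampled at 0, 15, 120, 480 and 1440 min. Dog, monkey and human used 2 μM compound (final), 1% solvent, 37° C., sampled at 0, 10, 30, 60 and 120 min. HPLC-MS gave % parent remaining.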

[3] = Plasma stability assay, dog plasma; type: in vitro ADME; conditions: 2 μM, 37° C.
Experimental: (§1) Plasma stability determination of the test compounds in rat, dog, cynomolgus monkey and human plasma is performed using HPLC-MS. For rat, incubations are carried out in 96-well polypropylene plates in 5 aliquots of 70 μL each (one for each time point). […] Five time points are analyzed (0, 15, 120, 480 and 1440 min). […] All incubations are performed in duplicates. The samples are analyzed by HPLC-MS. The percentage of parent compound remaining after incubation in plasma is determined.

[4] = Plasma stability assay, monkey plasma; type: in vitro ADME, cynomolgus monkey; conditions: 2 μM, 37° C.
Experimental: as §1

[5] = Plasma stability assay, human plasma; type: in vitro ADME; conditions: 2 μM, 37° C.
Experimental: as §1

[6] = Liver S9 fraction stability, dog; type: in vitro ADME; conditions: dog liver S9, 1.0 mg/ml S9 protein, 2 μM, 37° C.
Experimental: (§2) Liver S9 fraction stability determination of the test compounds in dog, cynomolgus monkey and human is performed using HPLC-MS. Test compound (2 μM, 0.1% DMSO, 1% Methanol final concentration) was assessed for stability in a 50 μl phosphate buffer containing 1.0 mg/ml S9 protein from each of the three species and 5 mM D-saccharic acid-1, 4-lactone. Samples were incubated at 37° C. for 60 minutes and the % compound remaining was assessed.

[7] = Liver S9 fraction stability, monkey; type: in vitro ADME, cynomolgus monkey; conditions: monkey liver S9, 1.0 mg/ml S9 protein, 2 μM, 37° C.
Experimental: as §2

[8] = Liver S9 fraction stability, human; type: in vitro ADME; conditions: human liver S9, 1.0 mg/ml S9 protein, 2 μM, 37° C.
Experimental: as §2

DOR = biological target: T1, DOR (Homo sapiens, UniProt P41143); test: Opioid receptor binding assay, DOR ([3H]-DADLE); conditions: MaxDose 10000 nM
T1 construct: expressed in transfected cells
T1 sequence (P41143 whole entry): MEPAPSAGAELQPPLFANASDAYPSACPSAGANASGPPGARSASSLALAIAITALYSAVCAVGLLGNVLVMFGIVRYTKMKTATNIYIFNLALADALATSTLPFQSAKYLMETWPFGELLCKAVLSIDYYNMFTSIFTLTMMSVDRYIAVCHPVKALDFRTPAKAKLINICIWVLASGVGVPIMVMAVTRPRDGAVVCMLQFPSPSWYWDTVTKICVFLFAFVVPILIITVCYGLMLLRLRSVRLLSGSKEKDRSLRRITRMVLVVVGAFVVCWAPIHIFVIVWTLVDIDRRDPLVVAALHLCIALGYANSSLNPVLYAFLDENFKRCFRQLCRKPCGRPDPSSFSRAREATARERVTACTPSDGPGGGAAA
Experimental: (§3) Receptor binding assays were performed to assess the ability of compounds to inhibit binding to radiolabeled ligand.
(§4) The stable cell lines were established and prepared cell membrane obtained using these cell lines.
3) Assay Procedure 1) Transfer 1 μl of specified concentration compound to assay plate according to the plate map for nonspecific binding. Transfer 1 μl of DMSO to assay plate according to plate map for total binding. 2) Follow the plate map. Dispense 99 μl of membrane stocks into the plate. 3) Add 100 μl of radio ligand. 4) Seal the plates. Incubate at RT for 1 hour. 5) Soak the Unifilter-96 GF/C filter plates with 50 μl of 0.3% PEI per well for at least 0.5 hour at room temperature. 6) When binding assays are completed, filter the reaction mixture through GF/C plates using Perkin Elmer Filtermate Harvester, and then wash each plate for 4 times with cold wash buffer. 7) Dry the filter plates for 1 hour at 50 degrees. 8) After drying, seal the bottom of the filter plate wells using Perkin Elmer Unifilter-96 backing seal tape. Add 50 μl of Perkin Elmer Microscint 20 cocktail. Seal top of filter plates with Perkin Elmer TopSeal-A sealing film. 9) Count ^3H trapped on filter using Perkin Elmer MicroBeta2 Reader second day. 10) Analyze the data with GraphPad Prism 5. Calculate the “Inhibition [% Control]” using the equation: % Inh=(1-Background subtracted Assay value/Background subtracted HC value)*100. Results

KOR = biological target: T2, KOR (Homo sapiens, UniProt P41145); test: Opioid receptor binding assay, KOR ([3H]Diprenorphine); conditions: MaxDose 10000 nM
T2 construct: expressed in transfected cells
T2 sequence (P41145 whole entry): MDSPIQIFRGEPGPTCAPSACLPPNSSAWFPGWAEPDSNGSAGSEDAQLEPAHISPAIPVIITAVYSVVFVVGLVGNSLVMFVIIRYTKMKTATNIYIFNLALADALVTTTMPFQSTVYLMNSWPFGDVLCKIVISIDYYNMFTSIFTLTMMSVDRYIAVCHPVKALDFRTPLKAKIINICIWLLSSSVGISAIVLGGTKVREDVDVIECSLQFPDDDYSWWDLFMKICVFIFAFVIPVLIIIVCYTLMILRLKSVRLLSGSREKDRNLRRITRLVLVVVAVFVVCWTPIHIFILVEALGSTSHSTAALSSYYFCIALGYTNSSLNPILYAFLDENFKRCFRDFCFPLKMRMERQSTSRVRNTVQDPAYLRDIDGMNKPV
Experimental: as §3, §4
(§5) 3) Assay Procedure 1) Transfer 1 μl of specified concentration compound to assay plate according to the plate map for nonspecific binding. Transfer 1 μl of DMSO to assay plate according to plate map for total binding. 2) Follow the plate map. Dispense 99 μl of membrane stocks into the plate. 3) Add 100 μl of radio ligand. 4) Seal the plates. Incubate at RT for 1 hour. 5) Soak the Unifilter-96 GF/C filter plates with 50 μl of 0.3% PEI per well for at least 0.5 hour at room temperature. 6) When binding assays are completed, filter the reaction mixture through GF/C plates using Perkin Elmer Filtermate Harvester, and then wash each plate for 4 times with cold wash buffer. 7) Dry the filter plates for 1 hour at 50 degrees. 8) After drying, seal the bottom of the filter plate wells using Perkin Elmer Unifilter-96 backing seal tape. Add 50 μl of Perkin Elmer Microscint 20 cocktail. Seal top of filter plates with Perkin Elmer TopSeal-A sealing film. 9) Count ^3H trapped on filter using Perkin Elmer MicroBeta2 Reader second day. 10) Analyze the data with GraphPad Prism 5. […]

MOR = biological target: T3, MOR (Homo sapiens, UniProt P35372); test: Opioid receptor binding assay, MOR ([3H]DAMGO); conditions: MaxDose 10000 nM
T3 construct: expressed in transfected cells
T3 sequence (P35372 whole entry): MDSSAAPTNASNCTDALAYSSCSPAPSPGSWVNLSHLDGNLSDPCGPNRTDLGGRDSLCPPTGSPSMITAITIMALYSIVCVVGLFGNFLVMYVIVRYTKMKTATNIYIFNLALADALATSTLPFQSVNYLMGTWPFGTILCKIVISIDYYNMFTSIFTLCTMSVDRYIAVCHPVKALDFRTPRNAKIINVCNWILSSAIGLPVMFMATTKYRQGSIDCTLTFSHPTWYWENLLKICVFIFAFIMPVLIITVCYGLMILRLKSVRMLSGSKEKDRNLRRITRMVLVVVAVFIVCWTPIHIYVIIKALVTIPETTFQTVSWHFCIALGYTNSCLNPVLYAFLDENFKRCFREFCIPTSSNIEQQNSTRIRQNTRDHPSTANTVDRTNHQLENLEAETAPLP
Experimental: as §3, §4, §5

[9] = not given; remark: listed apart in the source
[10] = Polymorph screening of solid state drug substances; conditions: for Dry method and appearance: after stirring 50 °C 72 hours, dried solid; for XRPD results (Dried): dried solid after 50 °C 72 hours; for Visual observation 50° C. / Visual observation RT: target conc. 100 mg/ml
[11] = Rat pharmacokinetic studies, intramuscular; type: in vivo, male Sprague Dawley Rats; conditions: 0.80 mg/kg, saline
Experimental: The purpose of this study is to determine the pharmacokinetics of test compounds in plasma, following intramuscular administration to male Sprague Dawley Rats (n=3, unless otherwise specified).
The dose formulation of 400 mg base equivalents/ml in sesame oil+1% benzyl alcohol (unless otherwise specified) was administered by intramuscular injection. The dose volume was determined by the animals' body weight determined on the morning of dosing day.
Each collected blood sample was centrifuged for 4 minutes at 4° C. and 10000 rpm for plasma collection. Plasma was collected and transferred into a pre-labeled PP tube in dry ice at each time point and precipitated immediately using ACN at a ratio of 1:4 (plasma:ACN). Centrifuged again (10 minutes, 12000 rpm) and obtain the supernatant. After terminal collection, all supernatant was stored at approximately −80° C. until bioanalysis.
LC-MS/MS methods for the quantitative determination of test compound in biological matrix were developed. […] The sample analysis was performed concurrently with a set of calibration standards and two sets of QC samples using the LC-MS/MS method.
Plasma concentration versus time data was analyzed by non-compartmental approaches using the Phoenix WinNonlin 6.3 software program. Cmax, Tmax, T1/2, AUC(0-t), AUC(0-inf), MRT(0-t), MRT(0-inf) and graphs of plasma concentration versus time profile were prepared.

[12] = heating temp. 60 °C, obs. temp. 25 °C
[13] = heating temp. 40 °C, obs. temp. 40 °C
[14] = heating temp. 60 °C, obs. temp. 40 °C

## Oc1ccc2c3c1O[C@H]1[C@H](O)CC[C@@]4(O)[C@@H](C2)N(CC2CC2)CC[C@]314 [6-β-naltrexol]
[1]
  time of peak plasma levels after oral dosing: within one hour
[1]; oral dosing
  mean elimination half-life: thirteen

## C=C1CC[C@@]2(O)C3Cc4ccc(OC(=O)OCCCCCCCCCCCC)c5c4[C@@]2(CCN3CC2CC2)[C@H]1O5 [Compound 6, (4aS,7aS,12bS)-3-(cyclopropylmethyl)-4a-hydroxy-7-methylene-2,3,4,4a,5,6,7,7a-octahydro-1H-4,12-methanobenzofuro[3,2-e]isoquinolin-9-yl dodecyl carbonate]
[2]; 0 min
  % remaining at time point: 100%
[2]; 15 min
  % remaining at time point: 31.3%
[2]; 120 min
  % remaining at time point: 7.6%
[2]; 480 min
  % remaining at time point: 4%
[2]; 1440 min
  % remaining at time point: 1.6%
[3]; 0 min
  % remaining at time point: 100%
[3]; 15 min (head)
  % remaining at time point: 89.1%
[3]; 120 min (head)
  % remaining at time point: 96.9%
[3]; 480 min (head)
  % remaining at time point: 107.2%
[3]; 1440 min (head)
  % remaining at time point: 101.2%
[4]; 0 min
  % remaining at time point: 100%
[4]; 15 min (head)
  % remaining at time point: 88.7%
[4]; 120 min (head)
  % remaining at time point: 74.3%
[4]; 480 min (head)
  % remaining at time point: 68.4%
[4]; 1440 min (head)
  % remaining at time point: 70.1%
[5]; 0 min
  % remaining at time point: 100%
[5]; 15 min (head)
  % remaining at time point: 97.6%
[5]; 120 min (head)
  % remaining at time point: 102%
[5]; 480 min (head)
  % remaining at time point: 109.8%
[5]; 1440 min (head)
  % remaining at time point: 115.1%
[6]
  % remaining at 60 minutes: 17.1%
[7]
  % remaining at 60 minutes: 0%
[8]
  % remaining at 60 minutes: 5.3%
DOR
  % Inh@MaxDose: 70.9%
[12]
  Approximate Solubility (mg/mL) in Excipient: Cottonseed oil: >397 mg/mL
  Approximate Solubility (mg/mL) in Excipient: Sesame oil: >386 mg/mL
[13]
  Approximate Solubility (mg/mL) in Excipient: Ethanol: 120 to 170 mg/mL
  Approximate Solubility (mg/mL) in Excipient: Sesame oil: >402.8 mg/mL

## C=C1CC[C@@]2(O)C3Cc4ccc(OCOC(=O)OCCCCCCCCCCCCCCCC)c5c4[C@@]2(CCN3CC2CC2)[C@H]1O5 [Compound 34, (((4aS,7aS,12bS)-3-(cyclopropylmethyl)-4a-hydroxy-7-methylene-2,3,4,4a,5,6,7,7a-octahydro-1H-4,12-methanobenzofuro[3,2-e]isoquinolin-9-yl)oxy)methyl hexadecyl carbonate]
KOR
  % Inh@MaxDose: 68.1%
MOR
  % Inh@MaxDose: 92.7%
[13]
  Equilibrium solubility (mg/mL) Water: <0.001 mg/mL

## C=C1CC[C@@]2(O)C3Cc4ccc(OC(=O)NC(C)(C)C)c5c4[C@@]2(CCN3CC2CC2)[C@H]1O5 [Compound 40, (4aS,7aS,12bS)-3-(cyclopropylmethyl)-4a-hydroxy-7-methylene-2,3,4,4a,5,6,7,7a-octahydro-1H-4,12-methanobenzofuro[3,2-e]isoquinolin-9-yl tert-butylcarbamate]
[9]
  melting point: 107.6 °C
[10]; Acetone
  Dry method and appearance: Evaporation/white powder
  XRPD results (Dried): Amorphous
  Visual observation 50° C.: Clear
  Visual observation RT: Slurry
[10]; EtOAc
  Dry method and appearance: Evaporation/white powder
  XRPD results (Dried): Pattern A
  Visual observation 50° C.: Clear
  Visual observation RT: Slurry
[10]; Heptane
  Dry method and appearance: Centrifugation/white powder
  XRPD results (Dried): Pattern A
  Visual observation 50° C.: Slurry
  Visual observation RT: Slurry
[10]; Isopropanol
  Dry method and appearance: Evaporation/oil
  XRPD results (Dried): Amorphous
  Visual observation 50° C.: Clear
  Visual observation RT: Slurry
[10]; MTBE
  Dry method and appearance: Evaporation/white powder
  XRPD results (Dried): Amorphous
  Visual observation 50° C.: Clear
  Visual observation RT: Clear

## C=C1CC[C@@]2(O)C3Cc4ccc(OCOC(=O)CCCCCCCCCCCCC)c5c4[C@@]2(CCN3CC2CC2)[C@H]1O5 [Compound 45, (((4aS,7aS,12bS)-3-(cyclopropylmethyl)-4a-hydroxy-7-methylene-2,3,4,4a,5,6,7,7a-octahydro-1H-4,12-methanobenzofuro[3,2-e]isoquinolin-9-yl)oxy)methyl tetradecanoate]
DOR
  % Inh@MaxDose: 73.8%
[12]
  Approximate Solubility (mg/mL) in Excipient: Cottonseed oil: >402 mg/mL
  Approximate Solubility (mg/mL) in Excipient: Sesame oil: 267 to 288 mg/mL
[13]
  Equilibrium solubility (mg/mL) Water: <0.001 mg/mL

## C=C1CC[C@@]2(O)C3Cc4ccc(OC(=O)CCCCCCCCCCCCCCC)c5c4[C@@]2(CCN3CC2CC2)[C@H]1O5 [Compound 56, (4aS,7aS,12bS)-3-(cyclopropylmethyl)-4a-hydroxy-7-methylene-2,3,4,4a,5,6,7,7a-octahydro-1H-4,12-methanobenzofuro[3,2-e]isoquinolin-9-yl palmitate]
[2]; 0 min
  % remaining at time point: 100%
[2]; 15 min
  % remaining at time point: 73.1%
[2]; 120 min
  % remaining at time point: 56.7%
[2]; 480 min
  % remaining at time point: 35.8%
[2]; 1440 min
  % remaining at time point: 16.8%
[9]
  melting point: 48.95 °C
[12]
  Approximate Solubility (mg/mL) in Excipient: Cottonseed oil: <50 mg/mL
  Approximate Solubility (mg/mL) in Excipient: Sesame oil: <50 mg/mL
[14]
  Approximate Solubility (mg/mL) in Excipient: Cottonseed oil: 25 to 50 mg/mL
  Approximate Solubility (mg/mL) in Excipient: Ethanol: <40.4 mg/mL
  Approximate Solubility (mg/mL) in Excipient: Sesame oil: 25 to 50 mg/mL

## C=C1CC[C@@]2(O)C3Cc4ccc(O)c5c4[C@@]2(CCN3CC2CC2)[C@H]1O5.Cl [Nalmefene HCl-IR]
[11]
  AUC0-inf (ng · h/mL) nalmefene: 66.0 ng·h/mL
  Terminal Half-life t1/2 (hour) nalmefene: 0.87 h
